According to PMC9557727, “How an assembly factor enhances covalent FAD attachment to the flavoprotein subunit of complex II” (The Journal of Biological Chemistry, 2022):
Read-outs that look alike come from different tables or passages of the source.

Experiments:
E. coli apo-SdhA = biological target: T1, E. coli apo-SdhA (Escherichia coli, UniProt P0AC41); assay: biochemical; type: biochemical; details: for Covalent FAD attachment to apo-SdhA, SdhE-dependent: +SdhE 10.4 μM; for Covalent FAD attachment to apo-SdhA, SdhE-dependent / Covalent FAD attachment to apo-SdhA, SdhE-independent: ligand 20 mM
T1 construct: His6 (N); made in house; host or cells: E. coli RP437 ΔsdhE (RP-E), plasmid pCA24N-SdhA
T1 sequence (P0AC41 whole entry): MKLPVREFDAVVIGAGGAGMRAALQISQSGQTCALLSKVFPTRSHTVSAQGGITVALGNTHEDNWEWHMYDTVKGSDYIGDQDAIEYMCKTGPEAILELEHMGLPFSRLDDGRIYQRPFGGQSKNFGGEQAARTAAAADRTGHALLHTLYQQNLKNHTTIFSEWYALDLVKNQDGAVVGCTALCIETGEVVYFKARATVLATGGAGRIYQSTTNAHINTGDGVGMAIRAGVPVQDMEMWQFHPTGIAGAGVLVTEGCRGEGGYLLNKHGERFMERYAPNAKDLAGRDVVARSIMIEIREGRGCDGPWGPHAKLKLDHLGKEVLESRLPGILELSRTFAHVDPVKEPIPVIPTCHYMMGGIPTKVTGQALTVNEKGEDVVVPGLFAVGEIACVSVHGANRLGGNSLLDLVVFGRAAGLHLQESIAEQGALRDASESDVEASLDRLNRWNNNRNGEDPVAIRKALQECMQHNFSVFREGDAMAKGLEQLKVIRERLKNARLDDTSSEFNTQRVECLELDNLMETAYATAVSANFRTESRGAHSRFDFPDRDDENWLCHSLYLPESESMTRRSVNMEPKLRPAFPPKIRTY
Method: (§1) Unless specified, the reaction was performed in 50 mM potassium phosphate (pH 7.0) at 30 °C for 1 h. […] The reaction was started after addition of the appropriate flavinylation-promoting ligand at the as-indicated concentration. At different time points, the samples were mixed with 4× SDS loading buffer (Bio-Rad), and the sample loaded onto an SDS-PAGE gel (Bio-Rad; Any KdA). Following protein separation, the gel was incubated in 10% acetic acid/20% ethanol for 5 min. Upon illumination with UV light, complex II flavinylated flavoprotein is visible because of the fluorescence of the covalently bound flavin. The in-gel fluorescence of covalently attached FAD was detected using a Safe Imager 2.0 blue-light transilluminator (Thermo Fisher Scientific). The gel was then rinsed with water for 5 min and stained with Instant Blue stain (Expedeon). ImageJ (National Institutes of Health) software was used for quantification of covalently bound FAD levels and relative protein ratios. The isolated holo-SdhA/FrdA or SDHA–SDHAF2 complex were used as 100% covalent flavinylated controls. […] To do that, upon addition of fumarate, the sample (200 μl) was quickly mixed and filled into an automatic pipette. Each sample (15 μl) was then injected into a vial containing 5 μl of 4× SDS loading gel. This allowed collection of time points that are at 10 to 15 s intervals.

[1] = tested on: Thermus thermophilus succinate dehydrogenase; details: no sdhE gene; cited from earlier work
E. coli apo-FrdA = biological target: T2, E. coli apo-FrdA (Escherichia coli, UniProt P00363); type: biochemical; details: ligand 20 mM, FAD 100 μM, 1 h, 30 °C; for Covalent FAD attachment to apo-FrdA, SdhE-dependent: +SdhE 10.4 μM
T2 construct: His6 (N); made in house; host or cells: E. coli RP437 ΔsdhE (RP-E), plasmid pCA24N-FrdA
T2 sequence (P00363 whole entry): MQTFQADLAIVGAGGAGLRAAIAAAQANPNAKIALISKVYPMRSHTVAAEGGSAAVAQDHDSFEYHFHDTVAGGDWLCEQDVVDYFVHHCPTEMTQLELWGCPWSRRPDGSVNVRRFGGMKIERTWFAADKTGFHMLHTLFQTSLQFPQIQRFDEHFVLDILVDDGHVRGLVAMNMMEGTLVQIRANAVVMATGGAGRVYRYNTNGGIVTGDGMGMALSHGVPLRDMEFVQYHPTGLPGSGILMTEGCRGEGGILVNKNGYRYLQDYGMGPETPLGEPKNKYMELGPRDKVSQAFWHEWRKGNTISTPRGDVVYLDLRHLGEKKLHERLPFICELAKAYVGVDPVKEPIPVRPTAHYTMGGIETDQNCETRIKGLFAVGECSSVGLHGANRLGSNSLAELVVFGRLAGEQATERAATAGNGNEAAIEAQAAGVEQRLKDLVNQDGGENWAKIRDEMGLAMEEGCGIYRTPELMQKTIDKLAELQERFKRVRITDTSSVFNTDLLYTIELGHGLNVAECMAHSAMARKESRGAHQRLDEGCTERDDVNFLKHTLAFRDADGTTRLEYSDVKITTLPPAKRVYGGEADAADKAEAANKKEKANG
Method: as §1

apo-SdhA [2] = biological target: T3, apo-SdhA (Escherichia coli, UniProt P0AC41); assay: Reduction/oxidation of FAD during SdhE-dependent flavinylation (absorbance at 452 nm); type: biochemical; design: His6 (N); made in house; host or cells: apo-SdhA: E. coli RP437 ΔsdhE (pCA24N-SdhA); details: 10 mM fumarate; 25 μM apo-SdhA, 20 μM FAD, 40 μM SdhE, 30 °C
Method: Spectral measurements and kinetics were performed by using an Agilent […] UV–visible spectrophotometer. For kinetic measurements, whole spectra (1 nm increments) were collected during the reaction at 1 to 5 s intervals.
Target sequence in this assay (P64559 whole entry): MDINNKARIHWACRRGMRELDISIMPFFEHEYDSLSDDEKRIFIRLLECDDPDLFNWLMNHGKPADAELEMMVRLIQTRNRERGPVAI
Target sequence in this assay (P0AC41 whole entry): as the sequence (P0AC41 whole entry) above

apo-SdhA [3] = biological target: T3, apo-SdhA; assay: Hydrogen peroxide formation upon covalent flavinylation of SdhA (Amplex UltraRed); type: biochemical; design: His6 (N); made in house; host or cells: apo-SdhA: E. coli RP437 ΔsdhE (pCA24N-SdhA); details: apo-SdhA 2.8 μM, FAD 2.5 μM, SdhE 4.8 μM
Method: Upon covalent attachment, the flavin in SdhA became reduced and can be reoxidized by oxygen with formation of hydrogen peroxide. Amplex UltraRed was used to monitor the hydrogen peroxide formed. […] The reaction was started by addition of either 10 μM or 10 mM fumarate and hydrogen peroxide monitored by following the oxidation of Amplex UltraRed (567 nm) using an Agilent 8453 spectrophotometer.
Target sequence in this assay (P64559 whole entry): as the sequence (P64559 whole entry) above
Target sequence in this assay (P0AC41 whole entry): as the sequence (P0AC41 whole entry) above

human apo-SDHA [4] = biological target: T4, human apo-SDHA (Homo sapiens, UniProt P31040); assay: In vitro covalent flavinylation of human apo-SDHA; type: biochemical
T4 construct: His6 (N); made in house; host or cells: E. coli BL21(DE3), plasmid pQE-hSDHA
T4 sequence (P31040 43-664): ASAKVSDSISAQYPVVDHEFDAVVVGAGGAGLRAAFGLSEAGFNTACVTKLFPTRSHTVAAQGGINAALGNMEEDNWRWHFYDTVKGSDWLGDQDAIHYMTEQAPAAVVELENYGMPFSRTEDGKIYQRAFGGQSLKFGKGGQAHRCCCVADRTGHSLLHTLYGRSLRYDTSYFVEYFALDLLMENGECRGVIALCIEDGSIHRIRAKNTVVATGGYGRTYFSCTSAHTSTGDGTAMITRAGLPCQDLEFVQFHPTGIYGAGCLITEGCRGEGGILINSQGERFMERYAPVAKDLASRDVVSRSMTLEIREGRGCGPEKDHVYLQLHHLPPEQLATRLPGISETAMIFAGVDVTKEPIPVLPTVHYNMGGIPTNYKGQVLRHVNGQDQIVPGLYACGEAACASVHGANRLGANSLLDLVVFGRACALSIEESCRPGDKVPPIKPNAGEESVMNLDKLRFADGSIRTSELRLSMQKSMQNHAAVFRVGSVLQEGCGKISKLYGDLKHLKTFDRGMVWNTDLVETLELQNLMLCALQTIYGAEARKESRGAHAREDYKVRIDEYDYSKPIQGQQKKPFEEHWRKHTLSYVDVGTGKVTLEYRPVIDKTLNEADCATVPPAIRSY
Method: as §1

human apo-SDHA [5] = biological target: T4, human apo-SDHA; design: method as in PMID 32887801; details: cited from earlier work
[6] = tested on: Sulfolobus tokodaii succinate dehydrogenase; details: no sdhE gene; cited from earlier work
holo-SdhA–SdhE = biological target: holo-SdhA–SdhE; design: method as in PMID 29348404; details: read-out: Kd for fumarate, holo-SdhA–SdhE complex; holo-SdhA with covalent FAD; cited from earlier work
apo-SdhA [7] = biological target: T3, apo-SdhA; assay: Determination of Kd for FAD by ultrafiltration; type: binding; design: His6 (N); made in house; host or cells: E. coli RP437 ΔsdhE (RP-E), plasmid pCA24N-SdhA; details: 50 mM Hepes pH 7.0, 21 °C
Method: The method is adapted from Mortarino et al. ([36]). […] The exact volume and the concentration of free flavin (ε^450 = 11.3 mM^−1 cm^−1) in the filtrate was measured, and it is assumed the free flavin (FAD^free) concentrations are the same in the filtrate and concentrated fractions. The total FAD in the concentrated fraction was calculated, and the excess over FAD^free corresponded to SdhA–noncovalent FAD. The Kd = [FAD^free][apo-SdhA]/[SdhA–FAD] was calculated from the amount of apo-SdhA determined by total protein concentration. The data are expressed as mean ± SD of four to five independent measurements.
Target sequence in this assay (P0AC41 whole entry): as the sequence (P0AC41 whole entry) above

apo-SdhA [8] = biological target: T3, apo-SdhA; type: biochemical; design: His6 (N); made in house; host or cells: apo-SdhA: E. coli RP437 ΔsdhE (pCA24N-SdhA); details: 30 min at 37 °C; FAD 100 μM, SdhE 10.4 μM
Target sequence in this assay (P64559 whole entry): as the sequence (P64559 whole entry) above
Target sequence in this assay (P0AC41 whole entry): as the sequence (P0AC41 whole entry) above
Method: Apo-SdhA (2.8 μM) or apo-SDHA (4.3 μM) in 40 mM Hepes (pH 7.5) was incubated at 37 °C as follows: (1) no addition; (2) FAD (100 μM); (3) the assembly factors SdhE (10.4 μM) or SDHAF2 (8.4 μM); and (4) FAD (100 μM) plus appropriate assembly factors at the aforementioned concentrations. The incubation time was 15 min for SDHA and 30 min for SdhA. Corresponding control samples (with no additions) were held at 4 °C for the same time. After the incubation, the samples were transferred to 4 °C, and to all samples, including the control, either FAD and/or the assembly factor was added so that each sample contains 100 μM FAD and the appropriate assembly factor. Then 0.5 mM fumarate is added to each sample to initiate the flavinylation reaction. After 30 min incubation at 30 °C, 4× SDS sample buffer was added, and then in-gel fluorescence was determined as described previously.

[9] = design: method as in PMID 4752947, PMID 6263261, PMID 15884941; details: free FAD in solution; cited from earlier work
[10] = +SdhE, 50 mM potassium phosphate pH 7.0, 0.1 mM FAD, 30 °C
[11] = read-out: k, ligand concentration for half-maximal flavinylation after 1 h incubation, +SdhE, 50 mM potassium phosphate pH 7.0, 0.1 mM FAD, 30 °C, 1 h

Structure (SMILES)	Covalent FAD attachment to apo-SdhA, SdhE-dependent (E. coli apo-SdhA; FAD 100 μM, 1 h, 30 °C)	K, apparent first-order rate constant of covalent flavinylation, +SdhE (E. coli apo-SdhA; [10]) [min⁻¹]	Covalent FAD attachment to apo-SdhA, SdhE-independent (E. coli apo-SdhA; −SdhE, FAD 100 μM, 1 h, 30 °C)	Initiation of flavinylation in Thermus thermophilus [1]	Covalent FAD attachment to apo-FrdA, SdhE-dependent (E. coli apo-FrdA)	Covalent FAD attachment to apo-FrdA, SdhE-independent (E. coli apo-FrdA)	also measured
O=C(O)CC(O)C(=O)O (centres unmarked) [Malate, malate]	high levels	0.3	partially effective	quite proficient	high levels		EC50 (E. coli apo-SdhA): 10 µM
O=C(O)CC(O)(CC(=O)O)C(=O)O [citrate]	able to induce				able to induce		
O=C(O)CC(=O)O [malonate]	~30%				~30%		
O=C(O)/C=C/C(=O)O [Fumarate]	high levels	1.7	complete	quite proficient	high levels	complete	k app, fast phase (reduction of FAD) (apo-SdhA [2]): ~7 min⁻¹; k app, second slower phase (reoxidation of reduced flavin) (apo-SdhA [2]): ~0.1 min⁻¹; Hydrogen peroxide formation on induction of flavinylation (apo-SdhA [3]; 10 μM fumarate): significant increase in hydrogen peroxide; Hydrogen peroxide formation on induction of flavinylation (apo-SdhA [3]; 10 mM fumarate): very low release of hydrogen peroxide; Saturation level of SDHAF2-independent flavinylation relative to SDHAF2-dependent flavinylation (human apo-SDHA [4]; −SDHAF2, 60 mM fumarate, 100 μM FAD, time course): ~70%; k, rate of covalent flavinylation of SDHA, − SDHAF2 (human apo-SDHA [4]; −SDHAF2, 60 mM fumarate, 100 μM FAD, assuming 70% of protein capable of flavinylation): 0.032 min⁻¹; EC50 (human apo-SDHA [4]; −SDHAF2, fumarate concentration for 50% flavinylation, read-out: K (fum), − SDHAF2): 12000 µM; SDHAF2-independent flavinylation of SDHA relative to flavinylation in the presence of SDHAF2 (human apo-SDHA [4]; −SDHAF2, ligand 20 mM, FAD 100 μM, 1 h, 37 °C): ~40%; Fumarate concentration giving complete flavinylation of apo-SdhA (E. coli apo-SdhA; +SdhE, apo-SdhA 6 μM, FAD 100 μM, 1 h, 30 °C): ~1 µM; EC50 (E. coli apo-SdhA; [11]): < 1 µM; k, apparent first-order rate constant of covalent flavinylation, −SdhE (E. coli apo-SdhA; −SdhE, 50 mM potassium phosphate pH 7.0, 0.1 mM FAD, 30 °C): 0.1 min⁻¹; k, apparent first-order rate constant of covalent flavinylation, −SdhE (E. coli apo-SdhA; −SdhE, 50 mM potassium phosphate pH 7.0, 0.1 mM FAD, 30 °C, listed as fumarate): 0.095 min⁻¹; EC50 (human apo-SDHA [5]; +SDHAF2, read-out: Concentration of fumarate needed to achieve 50% flavinylation, with SDHAF2): 16 µM; k, rate of covalent flavinylation of SDHA, + SDHAF2 (human apo-SDHA [5]): 0.15 min⁻¹; Initiation of flavinylation in Sulfolobus tokodaii [6]: proficient flavinylation; Kd (holo-SdhA–SdhE): 64 µM
CC(=O)C(=O)O [Pyruvate]	able to induce				able to induce		
CC(=O)O [acetate]	~30%				~30%		
N[C@@H](CC(=O)O)C(=O)O [Aspartate, L-aspartate]	high levels	0.1			high levels	partially effective	EC50 (E. coli apo-SdhA): 26 µM
O=C(O)CCC(=O)O [Succinate, succinate]	high levels	0.7	partially effective	quite proficient	high levels		EC50 (E. coli apo-SdhA; [11]): 1 µM; Initiation of flavinylation in Sulfolobus tokodaii [6]: proficient flavinylation
O=C(O)CC(=O)C(=O)O [oxaloacetate]	high levels			quite proficient	high levels	partially effective	
Cc1cc2nc3c(=O)[nH]c(=O)nc-3n(C[C@H](O)[C@H](O)[C@H](O)COP(=O)(O)OP(=O)(O)OC[C@H]3O[C@@H](n4cnc5c(N)ncnc54)[C@H](O)[C@@H]3O)c2cc1C [FAD]							Kd (apo-SdhA [7]; read-out: Estimated apparent Kd for FAD, apo-SdhA in the presence of SdhE, +SdhE 12.5 μM): 1.3 ± 0.5 µM; Kd (apo-SdhA [7]; without SdhE, read-out: Estimated apparent Kd for FAD, apo-SdhA alone): 14.4 ± 1.7 µM; Increase in FAD concentration required for 50% flavinylation without SDHAF2 versus SDHAF2-dependent reaction (human apo-SDHA [4]; fumarate-only SDHA flavinylation): fivefold; FAD requirement for maximum flavinylation of SdhA (E. coli apo-SdhA; +SdhE, fumarate 10 mM, apo-SdhA 6 μM, 1 h, 30 °C): stoichiometric ratios of FAD to apo-SdhA; EC50 (E. coli apo-SdhA; −SdhE, fumarate 10 mM, apo-SdhA 6 μM, 1 h, 30 °C, read-out: FAD concentration for half-maximal flavinylation of SdhA): ~20 µM; Protection of apo-SdhA against thermal inactivation of the flavinylation reaction (apo-SdhA [8]): does not afford enhanced stability and protection; Redox potential Em of free FAD [9]: −219 mV
